Inconclusive results and toxic doses are left out. Cut-off read from the data, not from the text of the source: active = T/C of 150% or more; inactive = T/C below 125%.
Tested on: L1210 leukemia ip in BDF1 mice, survival T/C
Assay: NCI In Vivo Anticancer Drug Screen. Data for tumor model L1210 Leukemia (intraperitoneal) in B6D2F1 (BDF1) mice
Conditions: endpoint: mean survival time, higher = longer survival
Summary of the method: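 Read-out is survival time, reported as the treated-group measurement over the vehicle-control measurement.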

[1] = dose: 100.0 mg/kg/injection, schedule: Q01DX001 (ip), vehicle: carboxymethylcellulose (CMC)
[2] = dose: 200.0 mg/kg/injection, schedule: Q01DX001 (ip), vehicle: carboxymethylcellulose (CMC)
[3] = dose: 400.0 mg/kg/injection, schedule: Q01DX001 (ip), vehicle: carboxymethylcellulose (CMC)
[4] = dose: 100.0 mg/kg/injection, schedule: Q01DX009 (ip), vehicle: Klucel (hydroxypropylcellulose) (HPC)
[5] = dose: 200.0 mg/kg/injection, schedule: Q01DX009 (ip), vehicle: Klucel (hydroxypropylcellulose) (HPC)
[6] = dose: 400.0 mg/kg/injection, schedule: Q01DX009 (ip), vehicle: Klucel (hydroxypropylcellulose) (HPC)
[7] = dose: 100.0 mg/kg/injection, schedule: Q01DX001 (ip), vehicle: saline
[8] = dose: 100.0 mg/kg/injection, schedule: Q04DX003 (ip), vehicle: saline with Tween-80
[9] = dose: 100.0 mg/kg/injection, schedule: Q04DX002 (ip), vehicle: Klucel (hydroxypropylcellulose) (HPC)
[10] = dose: 200.0 mg/kg/injection, schedule: Q04DX002 (ip), vehicle: Klucel (hydroxypropylcellulose) (HPC)

Measured: T/C

NC(N)=NN=C1c2ccccc2-c2ccccc21
inactive: dose: 1.0 mg/kg/injection, schedule: Q01DX Z (ip), vehicle: methylcellulose (MC) 107 % of control | dose: 2.0 mg/kg/injection, schedule: Q01DX Z (ip), vehicle: methylcellulose (MC) 102 % of control | dose: 4.0 mg/kg/injection, schedule: Q01DX Z (ip), vehicle: methylcellulose (MC) 103 % of control | dose: 4.0 mg/kg/injection, schedule: Q01DX Z (oral), vehicle: methylcellulose (MC) 95 % of control | dose: 8.0 mg/kg/injection, schedule: Q01DX Z (ip), vehicle: methylcellulose (MC) 107 % of control | dose: 16.0 mg/kg/injection, schedule: Q01DX Z (oral), vehicle: methylcellulose (MC) 107 % of control

Cc1ccc(OCC(=O)Nc2ccc3c(c2)C(=O)c2ccccc2C3=O)c(C)c1
inactive: [1] 101 % of control | [2] 98 % of control | [3] 95 % of control

CCCCCCCCCCCCCCCCOc1ccc(S(=O)(=O)c2ccccc2)cc1[N+](=O)[O-]
inactive: dose: 100.0 mg/kg/injection, schedule: Q04DX003 (ip), vehicle: Klucel (hydroxypropylcellulose) (HPC) 91 % of control | dose: 200.0 mg/kg/injection, schedule: Q04DX003 (ip), vehicle: Klucel (hydroxypropylcellulose) (HPC) 94 % of control | dose: 400.0 mg/kg/injection, schedule: Q01DX009 (ip), vehicle: saline sonified 96 % of control | dose: 400.0 mg/kg/injection, schedule: Q04DX003 (ip), vehicle: Klucel (hydroxypropylcellulose) (HPC) 96 % of control

CC(C)OP(=O)(OC(C)C)C1=C(P(=O)(OC(C)C)OC(C)C)C(F)(F)C(F)(F)C1(F)F
inactive: dose: 9.5 mg/kg/injection, schedule: Q01DX001 (ip), vehicle: other 106 % of control | dose: 19.0 mg/kg/injection, schedule: Q01DX001 (ip), vehicle: other 95 % of control | dose: 38.0 mg/kg/injection, schedule: Q01DX001 (ip), vehicle: other 89 % of control

CC(=O)Nc1ccc(NC(=O)Nc2cc([N+](=O)[O-])ccc2C)cc1
inactive: [4] 95 % of control | [5] 93 % of control | [6] 96 % of control

CCCSc1ccccn1
inactive: dose: 25.0 mg/kg/injection, schedule: Q04DX003 (ip), vehicle: saline 101 % of control | dose: 50.0 mg/kg/injection, schedule: Q04DX003 (ip), vehicle: saline 93 % of control | dose: 100.0 mg/kg/injection, schedule: Q04DX003 (ip), vehicle: saline 95 % of control

Nc1ccc(Nc2cc(S(=O)(=O)O)c(N)c3c2C(=O)c2ccccc2C3=O)cc1
inactive: [7] 97 % of control | dose: 400.0 mg/kg/injection, schedule: Q01DX001 (ip), vehicle: saline 93 % of control

CCOc1ccc(NC(=O)Nc2ccccc2)cc1
inactive: dose: 100.0 mg/kg/injection, schedule: Q01DX009 (ip), vehicle: saline with Tween-80 94 % of control | [8] 96 % of control | dose: 200.0 mg/kg/injection, schedule: Q01DX009 (ip), vehicle: saline with Tween-80 93 % of control | dose: 200.0 mg/kg/injection, schedule: Q04DX003 (ip), vehicle: saline with Tween-80 94 % of control | dose: 400.0 mg/kg/injection, schedule: Q01DX009 (ip), vehicle: saline with Tween-80 93 % of control | dose: 400.0 mg/kg/injection, schedule: Q04DX003 (ip), vehicle: saline with Tween-80 94 % of control

O=C1C=Cc2ccccc2/C1=C/c1nc(-c2ccc(Cl)cc2)oc1O
inactive: [9] 95 % of control | [10] 91 % of control

Cc1ccc(Nc2cc(N)nc(N)n2)cc1C
inactive: dose: 25.0 mg/kg/injection, schedule: Q01DX Z (ip), vehicle: methylcellulose (MC) 97 % of control | dose: 50.0 mg/kg/injection, schedule: Q01DX Z (ip), vehicle: methylcellulose (MC) 114 % of control

N#Cc1ccc(/C=C/C(=O)c2ccccc2)cc1
inactive: dose: 100.0 mg/kg/injection, schedule: Q01DX001 (ip), vehicle: Klucel (hydroxypropylcellulose) (HPC) 95 % of control | [4] 96 % of control | dose: 200.0 mg/kg/injection, schedule: Q01DX001 (ip), vehicle: Klucel (hydroxypropylcellulose) (HPC) 88 % of control | [5] 93 % of control | [6] 89 % of control

CN(C)N=Nc1cccc(C(=O)O)c1
inactive: dose: 50.0 mg/kg/injection, schedule: Q04DX002 (ip), vehicle: other 106 % of control | dose: 100.0 mg/kg/injection, schedule: Q04DX002 (ip), vehicle: other 113 % of control | dose: 200.0 mg/kg/injection, schedule: Q04DX002 (ip), vehicle: other 113 % of control | dose: 400.0 mg/kg/injection, schedule: Q04DX002 (ip), vehicle: other 124 % of control

O=C(O)c1cc(=O)cc(C(=O)O)o1
inactive: [8] 95 % of control

Cc1ccc(/C=C2\CCC3C(=O)CCCC3C2=O)cc1 (configuration not stated)
inactive: [7] 107 % of control | dose: 200.0 mg/kg/injection, schedule: Q01DX001 (ip), vehicle: saline 89 % of control

Cc1ccc(S(=O)(=O)N2CCc3ccccc3C3(C2)OCCO3)cc1
inactive: [1] 96 % of control | [2] 96 % of control | [3] 98 % of control

Fc1ccc(NC(=S)Nc2ccccc2)cc1
inactive: [9] 108 % of control | [10] 116 % of control | dose: 400.0 mg/kg/injection, schedule: Q04DX002 (ip), vehicle: Klucel (hydroxypropylcellulose) (HPC) 97 % of control

O=[N+]([O-])c1ccc(N/N=C2/CCSc3ccccc32)cc1
inactive: dose: 100.0 mg/kg/injection, schedule: Q04DX003 (ip), vehicle: acetone 100 % of control | dose: 200.0 mg/kg/injection, schedule: Q04DX003 (ip), vehicle: acetone 99 % of control | dose: 400.0 mg/kg/injection, schedule: Q04DX003 (ip), vehicle: acetone 88 % of control

CCc1ccc(N=Nc2ccc(NC)cc2)cc1
inactive: [1] 98 % of control | [2] 93 % of control | [3] 98 % of control

CCSC1C(O)C(CO)OC1n1ccc(=O)[nH]c1=O (configuration not stated)
inactive: dose: 100.0 mg/kg/injection, schedule: Q01DX005 (ip), vehicle: saline 92 % of control | dose: 200.0 mg/kg/injection, schedule: Q01DX005 (ip), vehicle: saline 101 % of control

Cc1cc(O)c(C=O)c(C)c1O
inactive: [4] 110 % of control | [5] 117 % of control

COc1ccc(C(=O)OCc2ccccc2CN(C)C)cc1
inactive: dose: 100.0 mg/kg/injection, schedule: Q04DX002 (ip), vehicle: saline 105 % of control | dose: 200.0 mg/kg/injection, schedule: Q04DX002 (ip), vehicle: saline 105 % of control

C/C=C/C(OCC)OCC
inactive: dose: 25.0 mg/kg/injection, schedule: Q01DX009 (ip), vehicle: water 105 % of control | dose: 50.0 mg/kg/injection, schedule: Q01DX009 (ip), vehicle: water 111 % of control | dose: 100.0 mg/kg/injection, schedule: Q01DX009 (ip), vehicle: water 106 % of control

From PubChem BioAssay AID248 (DTP/NCI, 2004)
